Patent publication US10035801B2, “Pyrazolo compounds and uses thereof” (CONSTELLATION PHARMACEUTICALS, INC., priority 2013, dated 2018)

Columns and labels:
Assay type in all cases: biochemical
GASC1 = biological target: T1, GASC1 (Homo sapiens, UniProt Q9H3R0); test: GASC1 demethylation assay on H3K9Me3 peptide (RapidFire HT-MS); conditions: read-out: GASC1 Inhibition
T1 construct: 6×His tagged recombinant GASC1 (N 350aa) was purified from E. Coli BL21(DE3); 6xHis; made in house; host or cells: E. coli BL21(DE3)
T1 sequence (Q9H3R0 1-350 limits assumed): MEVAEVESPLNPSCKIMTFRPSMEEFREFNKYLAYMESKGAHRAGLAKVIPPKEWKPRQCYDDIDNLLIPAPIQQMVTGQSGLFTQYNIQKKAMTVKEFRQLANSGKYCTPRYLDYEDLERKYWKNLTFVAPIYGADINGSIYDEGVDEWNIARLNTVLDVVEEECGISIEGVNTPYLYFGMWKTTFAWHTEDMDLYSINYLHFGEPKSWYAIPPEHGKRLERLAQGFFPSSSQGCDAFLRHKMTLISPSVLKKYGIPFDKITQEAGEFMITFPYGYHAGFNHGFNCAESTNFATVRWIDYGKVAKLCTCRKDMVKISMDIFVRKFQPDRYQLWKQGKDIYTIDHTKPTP
Procedure: 6×His tagged recombinant GASC1 (N 350aa) was purified from E. Coli BL21(DE3) to near homogeneity. The demethylation reaction buffer contained 50 mM TrisCl pH 7.5, 0.01% Triton X-100, 5% glycerol, 1 mM ascorbate (Cat# A4034, Sigma Aldrich), 5 μM α-ketoglutarate (# K2010, Sigma Aldrich) and 20 μM Fe2(NH4)2(SO4)2 (Cat# F1543, Sigma Aldrich). In 25 μL demethylation reaction system, 400 nM recombinant GASC1 and 20 μM H3K9me3 peptide (1-21 aa) were incubated with compounds for 10 minutes, and then α-ketoglutarate and Fe2(NH4)2(SO4)2 were added to initiate the reaction. All of the reactions were incubated for 45 minutes at room temperature, and then 25 μl of 1 N HCl was added to quench the reactions. After termination, plates were sealed and frozen at −80° C. and shipped on dry ice to BioTrove Inc. (Woburn, Mass.) for analysis.
All the reactions were read by RapidFire™ HT-MS platform developed in BioTrove Inc, and the method has been described in detail previously (Assay and Drug Development Technologies, 2004; 2(4): 373-381). Briefly, at BioTrove, plates were thawed and immediately analyzed using RapidFire™ system coupled to a Sciex API4000 triple quadrapole mass spectrometer. The samples were delivered directly from the plate to a clean-up cartridge (BioTrove column A) to remove nonvolatile assay components with 0.1% formic acid in a 3-sec wash cycle. The peptide substrate and demethylated product were coeluted to the mass spectrometer with 80% acetonitrile, 0.1% formic acid. Both the substrate and product signals were read at their +5 charge species, and the conversion from substrate to product is assessed by [H3K9me2 Read]/[H3K9me2 Read+H3K9me3 Read].

JARID1A = biological target: T2, JARID1A (Homo sapiens, UniProt P29375); test: JARID1A demethylase assay on H3K4Me3 peptide (RapidFire HT-MS)
T2 construct: FLAG tagged full length recombinant JARID1A and PLU1 proteins were purified from Sf9 insect cells; FLAG; made in house; host or cells: Sf9 insect cells
T2 sequence (P29375 whole entry): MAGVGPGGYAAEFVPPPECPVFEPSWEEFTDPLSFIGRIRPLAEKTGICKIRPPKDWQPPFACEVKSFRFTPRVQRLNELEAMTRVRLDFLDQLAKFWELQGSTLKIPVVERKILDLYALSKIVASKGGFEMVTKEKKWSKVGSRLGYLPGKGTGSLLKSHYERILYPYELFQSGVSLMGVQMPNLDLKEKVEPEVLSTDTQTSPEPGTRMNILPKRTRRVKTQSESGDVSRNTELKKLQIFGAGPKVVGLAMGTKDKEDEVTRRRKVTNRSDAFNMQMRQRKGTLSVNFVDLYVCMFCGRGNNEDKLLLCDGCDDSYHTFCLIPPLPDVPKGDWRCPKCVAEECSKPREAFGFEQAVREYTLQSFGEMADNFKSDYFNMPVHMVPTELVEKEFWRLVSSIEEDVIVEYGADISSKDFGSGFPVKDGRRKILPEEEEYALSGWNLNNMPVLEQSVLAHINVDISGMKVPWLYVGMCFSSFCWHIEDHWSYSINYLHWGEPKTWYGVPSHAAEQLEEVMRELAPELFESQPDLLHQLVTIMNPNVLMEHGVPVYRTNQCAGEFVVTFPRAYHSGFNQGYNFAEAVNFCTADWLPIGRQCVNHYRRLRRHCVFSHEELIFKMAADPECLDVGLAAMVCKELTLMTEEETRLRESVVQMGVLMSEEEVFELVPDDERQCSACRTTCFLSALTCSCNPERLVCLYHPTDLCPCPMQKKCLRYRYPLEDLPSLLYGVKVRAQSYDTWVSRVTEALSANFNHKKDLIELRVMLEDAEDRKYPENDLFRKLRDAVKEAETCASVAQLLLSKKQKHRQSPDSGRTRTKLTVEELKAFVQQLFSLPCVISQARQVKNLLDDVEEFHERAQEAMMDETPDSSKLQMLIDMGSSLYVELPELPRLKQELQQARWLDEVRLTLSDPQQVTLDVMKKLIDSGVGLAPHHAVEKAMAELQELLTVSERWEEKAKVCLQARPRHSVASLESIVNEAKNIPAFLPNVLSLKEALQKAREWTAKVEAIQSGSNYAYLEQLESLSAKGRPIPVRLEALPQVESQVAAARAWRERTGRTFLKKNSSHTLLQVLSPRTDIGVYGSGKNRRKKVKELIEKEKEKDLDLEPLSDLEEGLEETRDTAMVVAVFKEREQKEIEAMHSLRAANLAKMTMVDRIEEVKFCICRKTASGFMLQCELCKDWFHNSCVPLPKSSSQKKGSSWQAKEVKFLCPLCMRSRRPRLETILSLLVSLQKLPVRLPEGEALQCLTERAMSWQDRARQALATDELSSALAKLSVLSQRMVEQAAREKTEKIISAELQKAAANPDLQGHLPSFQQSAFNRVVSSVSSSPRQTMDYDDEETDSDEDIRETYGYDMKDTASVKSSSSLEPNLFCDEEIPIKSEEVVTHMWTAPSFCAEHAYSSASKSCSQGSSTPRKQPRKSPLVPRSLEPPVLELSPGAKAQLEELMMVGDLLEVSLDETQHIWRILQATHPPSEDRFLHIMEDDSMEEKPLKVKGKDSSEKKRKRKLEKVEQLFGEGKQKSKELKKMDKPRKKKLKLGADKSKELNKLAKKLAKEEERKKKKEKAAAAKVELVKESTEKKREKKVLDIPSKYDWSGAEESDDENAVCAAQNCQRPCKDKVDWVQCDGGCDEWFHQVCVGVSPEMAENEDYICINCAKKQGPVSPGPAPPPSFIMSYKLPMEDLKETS
Procedure: (§1) FLAG tagged full length recombinant JARID1A and PLU1 proteins were purified from Sf9 insect cells to near homogeneity. The demethylation reaction buffer contained 50 mM TrisCl pH 7.5, 0.01% Triton X-100, 0.005% BSA, 1 mM ascorbate (Cat# A4034, Sigma Aldrich), 1.7 μM α-ketoglutarate (# K2010, Sigma Aldrich) and 20 μM Fe2(NH4)2(SO4)2 (Cat# F1543, Sigma Aldrich). In a 25 μL demethylation reaction system, 20 nM recombinant JARID1A or PLU1 proteins and 4 μM H3K4me3 peptide (1-21 aa), which can be biotinylated or unlabelled, were incubated with compounds for 10 minutes, and then α-ketoglutarate and Fe2(NH4)2(SO4)2 were added to initiate the reaction. All of the reactions were incubated for 45 minutes at room temperature, and then 25 μl of 1 N HCl was added to quench the reactions. After termination, plates were sealed and frozen at −80° C. for analysis.
(§2) All the reactions were read by RapidFire™ HT-MS platform developed in BioCius Inc, and described in detail (Assay and Drug Development Technologies, 2004; 2(4): 373-381). Briefly, plates were thawed and immediately analyzed using RapidFire™ system coupled to a Sciex API4000 triple quadrapole mass spectrometer. The samples were delivered directly from the plate to a clean-up cartridge (BioCius column A) to remove nonvolatile assay components with 0.1% formic acid in a 3-sec wash cycle. The peptide substrate and demethylated product were coeluted to the mass spectrometer with 80% acetonitrile, 0.1% formic acid. Both the substrate and product signals were read at their +5 charge species, and the conversion from substrate to product assessed by [H3K4me2 Read]/[H3K4me2 Read+H3K4me3 Read].

PLU-1 = biological target: T3, PLU-1 (Homo sapiens, UniProt Q9UGL1); test: PLU-1 demethylase assay on H3K4Me3 peptide (RapidFire HT-MS)
T3 construct: FLAG tagged full length recombinant JARID1A and PLU1 proteins were purified from Sf9 insect cells; FLAG; made in house; host or cells: Sf9 insect cells
T3 sequence (Q9UGL1 whole entry): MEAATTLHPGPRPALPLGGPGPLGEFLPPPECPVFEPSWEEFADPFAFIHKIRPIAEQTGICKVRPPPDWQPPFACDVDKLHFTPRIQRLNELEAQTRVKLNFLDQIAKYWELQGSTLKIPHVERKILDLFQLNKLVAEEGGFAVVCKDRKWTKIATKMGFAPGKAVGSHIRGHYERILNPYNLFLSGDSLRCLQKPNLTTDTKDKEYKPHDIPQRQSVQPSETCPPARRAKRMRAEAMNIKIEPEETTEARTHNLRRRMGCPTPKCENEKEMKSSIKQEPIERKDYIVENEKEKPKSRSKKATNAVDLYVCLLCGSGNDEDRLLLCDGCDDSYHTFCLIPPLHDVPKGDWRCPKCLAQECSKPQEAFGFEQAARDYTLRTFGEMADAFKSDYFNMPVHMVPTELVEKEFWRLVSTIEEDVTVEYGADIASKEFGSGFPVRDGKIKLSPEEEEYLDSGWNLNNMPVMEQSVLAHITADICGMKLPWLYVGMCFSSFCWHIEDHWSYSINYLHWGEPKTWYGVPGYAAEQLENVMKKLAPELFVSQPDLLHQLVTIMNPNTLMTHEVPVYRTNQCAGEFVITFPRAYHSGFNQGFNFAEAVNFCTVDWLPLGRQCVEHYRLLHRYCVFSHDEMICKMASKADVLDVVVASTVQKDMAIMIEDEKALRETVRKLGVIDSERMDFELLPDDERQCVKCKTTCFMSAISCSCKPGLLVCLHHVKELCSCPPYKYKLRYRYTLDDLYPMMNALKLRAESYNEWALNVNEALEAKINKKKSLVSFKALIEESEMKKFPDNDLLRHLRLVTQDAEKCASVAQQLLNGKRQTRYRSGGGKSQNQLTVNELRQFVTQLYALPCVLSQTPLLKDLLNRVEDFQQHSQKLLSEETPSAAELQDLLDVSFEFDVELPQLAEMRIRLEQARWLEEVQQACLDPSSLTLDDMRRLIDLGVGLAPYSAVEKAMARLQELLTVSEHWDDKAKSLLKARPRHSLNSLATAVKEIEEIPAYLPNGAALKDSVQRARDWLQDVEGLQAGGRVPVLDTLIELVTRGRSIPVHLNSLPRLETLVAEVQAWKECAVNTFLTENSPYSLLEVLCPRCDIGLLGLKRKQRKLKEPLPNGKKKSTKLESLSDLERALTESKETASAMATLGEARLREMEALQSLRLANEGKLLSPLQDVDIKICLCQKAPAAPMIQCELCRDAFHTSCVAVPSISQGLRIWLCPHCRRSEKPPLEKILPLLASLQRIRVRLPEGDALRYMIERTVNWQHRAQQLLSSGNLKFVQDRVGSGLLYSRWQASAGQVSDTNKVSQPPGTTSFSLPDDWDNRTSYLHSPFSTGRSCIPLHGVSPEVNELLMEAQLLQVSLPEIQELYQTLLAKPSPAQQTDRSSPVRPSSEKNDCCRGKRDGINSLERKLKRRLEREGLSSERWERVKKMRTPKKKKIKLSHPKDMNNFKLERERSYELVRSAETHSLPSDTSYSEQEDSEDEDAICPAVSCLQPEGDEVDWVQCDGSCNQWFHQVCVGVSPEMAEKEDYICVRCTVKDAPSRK
Procedure: as §1, §2

Structure (SMILES)	IC50 (GASC1) [µM]	IC50 (JARID1A) [µM]	IC50 (PLU-1) [µM]
Cc1[nH]c2c(C#N)cnn2c(=O)c1Cc1ccccc1 [Compound I-6]	≥ 50	–	–
Cc1nn2c(=O)c3c([nH]c2c1C#N)CCCC3 [Compound I-12]	10 to 50	–	–
CCc1nn2c(=O)c3c([nH]c2c1C#N)CCCC3 [Compound I-13]	≥ 50	–	–
Cn1c2c(c(=O)n3ncc(C#N)c13)CCCC2 [Compound I-14]	≥ 50	–	–
Cc1nn2c(=O)c(C(C)C)c(C)[nH]c2c1C#N [Compound I-15]	1 to 10	–	–
CCCc1c(C)[nH]c2c(C#N)c(C)nn2c1=O [Compound I-16]	1 to 10	–	–
CCCc1c(C)[nH]c2c(C#N)cnn2c1=O [Compound I-17]	≤ 1	–	–
N#Cc1cnn2c(=O)c3c(n(Cc4ccccc4)c12)CCCC3 [Compound I-18]	≥ 50	–	–
N#Cc1cnn2c(=O)c3c(n(-c4ccccc4)c12)CCCC3 [Compound I-19]	≥ 50	–	–
Cc1c(C(C)C)c(=O)n2ncc(C#N)c2n1-c1ccccc1 [Compound I-20]	1 to 10	–	–
CCc1c(CO)[nH]c2c(C#N)cnn2c1=O [Compound I-21]	≤ 1	≤ 1	≤ 1
CCc1c(CO)[nH]c2c(C#N)c(C)nn2c1=O [Compound I-22]	1 to 10	–	–
CCc1c(COC)[nH]c2c(C#N)cnn2c1=O [Compound I-23]	1 to 10	≤ 1	≤ 1
CCc1c(COC)[nH]c2c(C#N)c(C)nn2c1=O [Compound I-24]	1 to 10	–	–
CCOC(=O)c1[nH]c2c(C#N)cnn2c(=O)c1CC [Compound I-25]	≤ 1	≤ 1	≤ 1
CCOC(=O)c1[nH]c2c(C#N)c(C)nn2c(=O)c1CC [Compound I-26]	1 to 10	–	–
COCCOc1c2c(nc3c(C#N)cnn13)CCCC2 [Compound I-27]	≥ 50	–	–
COCCc1c(C)[nH]c2c(C#N)cnn2c1=O [Compound I-28]	≥ 50	–	–
CCc1c(C)n(C)c2c(C#N)cnn2c1=O [Compound I-29]	≥ 50	1 to 10	1 to 10
CCCc1c(COC)[nH]c2c(C#N)cnn2c1=O [Compound I-31]	1 to 10	–	–
CCc1c(CCCOC)[nH]c2c(C#N)cnn2c1=O [Compound I-32]	1 to 10	–	–
CCCc1c(CO)[nH]c2c(C#N)cnn2c1=O [Compound I-33]	1 to 10	–	–

Structure (SMILES)	IC50 (GASC1) [µM]	IC50 (JARID1A) [µM]	IC50 (PLU-1) [µM]
C=CCc1c(C)[nH]c2c(C#N)cnn2c1=O [Compound I-34]	≤ 1	–	–
CCc1c(C(C)O)[nH]c2c(C#N)cnn2c1=O (stereo not drawn) [Compound I-35]	1 to 10	–	–
CCc1c(C)n(CCN(C)C)c2c(C#N)cnn2c1=O [Compound I-36]	≥ 50	–	–
CCc1c2n(c3c(C#N)cnn3c1=O)CCC2 [Compound I-37]	≥ 50	–	–
CCc1c(CCCO)[nH]c2c(C#N)cnn2c1=O [Compound I-38]	≤ 1	–	–
Cc1[nH]c2c(C#N)cnn2c(=O)c1CC(C)C [Compound I-39]	1 to 10	–	–
Cc1[nH]c2c(C#N)cnn2c(=O)c1CCO [Compound I-40]	1 to 10	–	–
CCc1c(C(F)(F)F)[nH]c2c(C#N)cnn2c1=O [Compound I-41]	≤ 1	–	–
CCc1c(-c2ccoc2)[nH]c2c(C#N)cnn2c1=O [Compound I-42]	≤ 1	–	–
CCCc1c(C(=O)OCC)[nH]c2c(C#N)cnn2c1=O [Compound I-43]	1 to 10	–	–
CCc1c(Cc2ccccc2)[nH]c2c(C#N)cnn2c1=O [Compound I-44]	≤ 1	–	–
CCOCc1[nH]c2c(C#N)cnn2c(=O)c1CC [Compound I-45]	≤ 1	–	–
C#CCc1c(C)[nH]c2c(C#N)cnn2c1=O [Compound I-46]	≤ 1	–	–
CCc1c(-c2ccccc2)[nH]c2c(C#N)cnn2c1=O [Compound I-47]	≤ 1	–	–
CCNC(=O)c1[nH]c2c(C#N)cnn2c(=O)c1CC [Compound I-48]	1 to 10	–	–
CCc1c(C(=O)NC)[nH]c2c(C#N)cnn2c1=O [Compound I-49]	1 to 10	≤ 1	1 to 10
C=CCc1c(CO)[nH]c2c(C#N)cnn2c1=O [Compound I-50]	1 to 10	–	–
C=CCc1c(COC)[nH]c2c(C#N)cnn2c1=O [Compound I-51]	≤ 1	–	–
CCc1c(CNC)[nH]c2c(C#N)cnn2c1=O [Compound I-52]	1 to 10	–	–
CCc1c(C(=O)OCc2ccccc2)[nH]c2c(C#N)cnn2c1=O [Compound I-53]	1 to 10	–	–
COc1c2c(nc3c(C#N)cnn13)CCCC2 [Compound I-54]	1 to 10	–	–
N#Cc1cnn2c(=O)c3ccccc3[nH]c12 [Compound I-55]	1 to 10	–	–
